Where two headings read alike, the source gives them in different places.

For data set [1] the following is noted: fragranced soaps, six months of storage; cited from earlier work.
A short description of another data set: physchem. The settings on record: toluene.
For data set [2] the following is noted: 0 min.
Protocol: (§1) The disappearance of both compounds is measured by gas chromatography using a six foot long, one-eighth inch diameter column having 15 percent by weight polyethylene glycol with an average molecular weight of 20,000 (Carbowax-20 M, Trademark) on particles of 80 by 100 mesh diatomaceous earth (Chromasorb W, Trademark) and using helium feed at 28 cc. per minute while heating from 100° to 210° C. at 8° per minute. Ten percent solutions of each compound in toluene are stirred at equal rates in the presence of air at ambient temperatures.
The conditions of data set [3]: cited from earlier work.
A further data set is described as follows: Water solubility. The class given is physicochemical. The settings on record: in words.

Protocol for physchem: as §1

On to `CC=Cc1ccc(OC(C)OCC)c(OC)c1` (stereo not drawn) [1'-ethoxyethyl ether of isoeugenol], for which the stability to discoloration entry in data set [1] was “stable to discoloration”.

For the compound `CCOC(C)OC1=C(C)OC(C)C1=O` (stereo not drawn) [2,5-Dimethyl-4-[(1'-ethoxy)ethoxy]-3(2H)-furanone], in the data set “physchem”, the amount remaining at 17 h came out at 95%, the amount remaining at 41 h is 93%, the amount remaining at 116 h was found to be 44% and the fraction remaining at 137 h was 38%. In addition, the “% Remaining” value in data set [2] is on record as 100%.

As for `CC1=C(O)C(=O)C(C)O1` (stereo not drawn) [Pineapple Ketone, 2,5-dimethyl-4-hydroxy-3(2H)-furanone], the half-life in data set [3] (pH 4) is 120 days. The half-life in data set [3] (pH 7) is given as 12 days. In addition, in the data set “physchem”, the amount remaining at 15 h was 24%, the amount remaining at 41 h is 18%, the share remaining at 115 h was found to be 6% and the fraction remaining at 138 h is 4%. The water solubility result in “Water solubility” is listed as “water soluble”. In addition, in data set [2], the “% Remaining” value was found to be 100%.

For the compound `CC=Cc1ccc(O)c(OC)c1` [isoeugenol], the stability to discoloration result in data set [1] was “causes discoloration”.

The term share remaining denotes the share of the starting amount still present when the sample was taken. By half-life is commonly meant the time needed for the level to fall by half in the phase considered.

The record behind these values is US4590284A, “Pineapple ketone 1'-alkoxyalkyl derivatives” (Hercules Incorporated, priority 1985, dated 1986).
